Source: patent publication US20230190873A1, “METHODS AND COMPOSITIONS RELATED TO THE TREATMENT OF NURR1- AND PPARy-MEDIATED CONDITIONS” (The McLean Hospital Corporation, priority 2017, published 2023)
“And” between values parts separate entries of the source, which are not always exact repeats. Equal entries are not always repeated. “Also recorded” adds a separate entry of the source.

Tests used:
[1] = system: Nurr1-LBD; test: Nurr1 LBD-dependent luciferase reporter assay in SK-N-BE(2)C cells; type: cell-based; conditions: GAL4(DBD)-Nurr1(LBD) luciferase reporter
Procedure: The graph depicts Nurr1-inducing activities by tissue extracts from brain, lung, heart, and kidney. […] The effector plasmid pSVGAL4(DBD)Nurr1(LBD) and the reporter gene for p8XUASL-Luc, together with b-galactosidase expression vector, were transiently transfected into neuroblastoma SK-N-BE(2)C cells. 6 h after transfection, cells were treated with the various tissue extracts for 20 h and the reporter activities were determined by luciferase assay and normalized to the b-galactosidase activity. The basal level of transcriptional activity was normalized to 1. The bars represent means +S.E.M. from three independent experiments.
Graph depicts effects of single or combination treatment with AQ/CQ and prostaglandin (PGE) on Nurr1 activity. As a negative control, human neuroblastoma SK-N-BE(2)C cells transfected with p8XUAS-Luc and pGAL(DBD)Nurr1(LBD) constructs were treated with DMSO alone. As a positive control, cells were treated as described above and harvested 24 h after treatment. An expression vector encoding RSV b-gal was co-transfected to allow normalization for transfection efficiency. Luciferase activity is represented as fold induction after normalization to β-galactosidase compared to cells treated with DMSO alone. Data represent the means ±SEMs of triplicate samples.

[2] = system: H9, human embryonic stem cell (hESC); test: Dopaminergic differentiation of H9 hESC (real time PCR); type: cell-based; conditions: for expression level of Lmx1A / expression level of TH: 15 days of differentiation, compared to vehicle group
Procedure: After 15 days of differentiation procedure including floor plate induction (day1˜day6), neural precursor induction (day 6˜day 12), and dopaminergic precursor induction (day 12˜day 15), cells were harvested for RNA extraction and cDNA preparation. The real time PCR was performed using cDNA and the matching primers for FoxA2, Lmx1A, and TH to determine the level of dopaminergic differentiation.

[3] = molecular target: T1, PPARγ-LBD (Homo sapiens, UniProt P37231); test: PPARγ-LBD reporter construct transcriptional activation; type: cell-based
T1 construct: fold induction of reporter constructs of Nurr1-LBD, PPARa-LBD, and PPARγ-LBD; expressed in transfected cells
T1 sequence (P37231 238-503 limits assumed): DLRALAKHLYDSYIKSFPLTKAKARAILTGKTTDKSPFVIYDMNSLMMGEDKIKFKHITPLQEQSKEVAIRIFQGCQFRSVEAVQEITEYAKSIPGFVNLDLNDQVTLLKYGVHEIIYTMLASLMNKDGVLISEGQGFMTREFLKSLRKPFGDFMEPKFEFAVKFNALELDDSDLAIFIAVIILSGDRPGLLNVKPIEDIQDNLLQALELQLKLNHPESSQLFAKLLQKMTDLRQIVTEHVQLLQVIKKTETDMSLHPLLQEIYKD
Source text: FIG. 13 depicts the fold induction of reporter constructs of Nurr1-LBD, PPARa-LBD, and PPARγ-LBD by different concentrations of PGH1, PGH2, PGJ2, and 15-d-PGJ2. […]

[4] = system: primary cultured mDA neurons; test: MPP+ toxicity in primary cultured mDA neurons; type: cell-based; conditions: MPP+ exposure
Source text: MPP+exposure to mDA neurons decreases the number of TH positive dopaminergic neurons.

[5] = system: MPTP-induced animal model of PD; test: MPTP-induced animal model of PD; type: in vivo, mice; conditions: for TH density in the striatum / number of TH+ neurons in the SN: MPTP-treated mice, compared to saline-treated control mice; for latency to fall on a rotating rod (rotarod) / time to descent on the pole (pole test): day 6 following MPTP, compared to saline-treated mice
Source text: FIG. 22A depicts a schematic representation of the administration of PGE1 or PGA1 to MPTP-induced animal model of PD. MPTP-treated mice were pre-administrated with PGE1, PGA1 or saline for 3 days before MPTP injection and post-treated for 5 days after MPTP injection.

[6] = system: LPS-induced immunoactivated mouse bone marrow-derived macrophages; test: Pro-inflammatory gene expression in immune-activated mBMMs; type: cell-based; conditions: LPS- or poly(I:C)-induced immune-activated mBMMs, 18 hrs
Procedure: FIG. 25 show titrations of prostaglandin A1 (PGA1), A2 (PGA2), E1 (PGE1), E2 (PGE2) in LPS-induced immunoactivated mouse bone marrow-derived macrophages. […] The maximal effective concentration was 20 μM or 10 μg/ml.

[7] = molecular target: T2, PPARa-LBD (Homo sapiens, UniProt Q07869); test: PPARa-LBD reporter construct transcriptional activation; type: cell-based
T2 construct: fold induction of reporter constructs of Nurr1-LBD, PPARa-LBD, and PPARγ-LBD; expressed in transfected cells
T2 sequence (Q07869 239-466 limits assumed): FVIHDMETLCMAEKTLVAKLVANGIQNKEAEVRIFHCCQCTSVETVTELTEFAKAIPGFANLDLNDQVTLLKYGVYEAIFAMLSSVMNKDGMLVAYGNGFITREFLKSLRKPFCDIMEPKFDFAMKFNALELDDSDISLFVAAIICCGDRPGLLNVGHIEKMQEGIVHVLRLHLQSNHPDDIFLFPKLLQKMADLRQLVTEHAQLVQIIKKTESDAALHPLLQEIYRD
Source text: FIG. 13 depicts the fold induction of reporter constructs of Nurr1-LBD, PPARa-LBD, and PPARγ-LBD by different concentrations of PGH1, PGH2, PGJ2, and 15-d-PGJ2.

SMILES: CC/C=C\CC(O)/C=C/C1=C(C/C=C\CCCC(=O)O)C(=O)CC1 (centres unmarked) [PGB3]
- transcriptional activity of Nurr1-LBD [1]: increases transcriptional activity of Nurr1-LBD in a dose dependent manner

SMILES: CCCCC[C@H](O)/C=C/C1=C(CCCCCCC(=O)O)C(=O)CC1 [PGB1]
- expression level of Lmx1A [2]: significantly higher expression level of Lmx1A and TH
- expression level of TH [2]: significantly higher expression level of Lmx1A and TH
- transcriptional activity of Nurr1-LBD [1]: increases transcriptional activity of Nurr1-LBD in a dose dependent manner
- transcriptional activity of PPARγ-LBD [3]: activate transcriptional function of PPARγ in a dose-dependent manner

SMILES: CCCCC[C@H](O)/C=C/[C@H]1OC(O)C[C@H](O)[C@@H]1C/C=C\CCCC(=O)O (some centres unmarked) [TxB2, reference compound]
- transcriptional activity of Nurr1-LBD [1]: does not activate transcriptional function of Nurr1 and PPARγ; also recorded: failed to induce transcriptional activity of Nurr1-LBD
- transcriptional activity of PPARγ-LBD [3]: does not activate transcriptional function of Nurr1 and PPARγ; also recorded: failed to induce transcriptional activity of PPARγ-LBD

SMILES: CC/C=C\C[C@H](O)/C=C/[C@H]1C=CC(=O)[C@@H]1C/C=C\CCCC(=O)O [PGA3]
- transcriptional activity of Nurr1-LBD [1]: increases transcriptional activity of Nurr1-LBD in a dose dependent manner

SMILES: CCCCC[C@H](O)/C=C/[C@H]1C=CC(=O)[C@@H]1CCCCCCC(=O)O [PGA1, prostaglandin A1]
- expression level of Lmx1A [2]: significantly higher expression level of Lmx1A and TH
- expression level of TH [2]: significantly higher expression level of Lmx1A and TH
- transcriptional activity of Nurr1-LBD [1]: increases transcriptional activity of Nurr1-LBD in a dose dependent manner
- MPP+-induced loss of TH-positive mDA neurons [4]: significantly rescued the MPP+-induced loss of TH-positive mDA neurons
- TH density in the striatum [5]: retain
- number of TH+ neurons in the SN [5]: retain a significant number
- latency to fall on a rotating rod (rotarod) [5]: rescues impaired motor behaviors
- time to descent on the pole (pole test) [5]: rescues impaired motor behaviors
- maximal effective concentration [6]: 20 μM and 10 μg/ml
- suppression of pro-inflammatory genes TNFα, IL-1β, iNOS and IL-6 [6]: induced suppression of pro-inflammatory genes including TNFα, IL-1β, iNOS and IL-6 in a dose-dependent manner

SMILES: CCCCC[C@H](O)/C=C/[C@H]1C(=O)C=C[C@@H]1C/C=C\CCCC(=O)O [PGJ2]
- transcriptional activity of Nurr1-LBD [1]: not Nurr1 LBD
- transcriptional activity of PPARγ-LBD [3]: robustly activated PPARs
- transcriptional activity of PPARalpha LBD [7]: robustly activated PPARs

SMILES: CCCCC[C@H](O)/C=C/[C@H]1C=CC(=O)[C@@H]1C/C=C\CCCC(=O)O [PGA2]
- transcriptional activity of Nurr1-LBD [1]: increases transcriptional activity of Nurr1-LBD in a dose dependent manner
- maximal effective concentration [6]: 20 μM and 10 μg/ml
- suppression of pro-inflammatory genes TNFα, IL-1β, iNOS and IL-6 [6]: induced suppression of pro-inflammatory genes including TNFα, IL-1β, iNOS and IL-6 in a dose-dependent manner

SMILES: CCCCC[C@H](O)/C=C/C1=C(C/C=C\CCCC(=O)O)C(=O)CC1 [PGB2]
- transcriptional activity of Nurr1-LBD [1]: increases transcriptional activity of Nurr1-LBD in a dose dependent manner
- transcriptional activity of PPARγ-LBD [3]: activate transcriptional function of PPARγ in a dose-dependent manner

SMILES: CC/C=C\C[C@H](O)/C=C/[C@H]1[C@H](O)CC(=O)[C@@H]1C/C=C\CCCC(=O)O [PGE3]
- transcriptional activity of Nurr1-LBD [1]: specifically and prominently activate the transcription function of Nurr1; also recorded: endogenous activators/agonists of Nurr1 function

SMILES: CCCCC[C@H](O)/C=C/[C@@H]1[C@@H](CCCCCCC(=O)O)[C@@H](O)C[C@H]1O [PGF2a]
- transcriptional activity of Nurr1-LBD [1]: activates transcriptional function of Nurr1; also recorded: increases transcriptional activity of Nurr1-LBD in a dose dependent manner
- transcriptional activity of PPARγ-LBD [3]: failed to induce transcriptional activity of PPARγ-LBD

SMILES: CCCCC[C@H](O)/C=C/C1C2CC(OO2)C1C/C=C\CCCC(=O)O (some centres unmarked) [PGH2]
- transcriptional activity of Nurr1-LBD [1]: robustly activate the transcriptional activities of Nurr1 LBD; also recorded: increase transcriptional activity of Nurr1-LBD in a dose dependent manner
- transcriptional activity of PPARγ-LBD [3]: failed to induce transcriptional activity of PPARγ-LBD

SMILES: CCCCC[C@H](O)/C=C/[C@H]1[C@H](O)CC(=O)[C@@H]1C/C=C\CCCC(=O)O [PGE2]
- transcriptional activity of Nurr1-LBD [1]: specifically and prominently activate the transcription function of Nurr1; also recorded: endogenous activators/agonists of Nurr1 function; also recorded: activate the transcriptional activity of Nurr1 in a dose-dependent manner; also recorded: increase transcriptional activity of Nurr1-LBD in a dose dependent manner
- transcriptional activity of PPARγ-LBD [3]: failed to induce transcriptional activity of PPARγ-LBD
- maximal effective concentration [6]: 20 μM and 10 μg/ml
- suppression of pro-inflammatory genes TNFα, IL-1β, iNOS and IL-6 [6]: induced suppression of pro-inflammatory genes including TNFα, IL-1β, iNOS and IL-6 in a dose-dependent manner

SMILES: CCCCC/C=C/C=C1/C(=O)C=C[C@@H]1C/C=C\CCCC(=O)O [15-d-PGJ2]
- transcriptional activity of Nurr1-LBD [1]: not Nurr1 LBD
- transcriptional activity of PPARγ-LBD [3]: robustly activated PPARs; also recorded: increases transcriptional activity of PPARγ-LBD
- transcriptional activity of PPARalpha LBD [7]: robustly activated PPARs

SMILES: CCCCC[C@H](O)/C=C/[C@H]1[C@H](O)CC(=O)[C@@H]1CCCCCCC(=O)O [PGE1]
- TH expression compared with cAMP ([2]; 0.01 mM concentration): dramatic increase of TH expression in 0.01 mM concentration, which was even stronger than cAMP
- expression level of Lmx1A [2]: significantly higher expression level of Lmx1A and TH
- expression level of TH [2]: significantly higher expression level of Lmx1A and TH
- transcriptional activity of Nurr1-LBD [1]: specifically and prominently activate the transcription function of Nurr1; also recorded: endogenous activators/agonists of Nurr1 function; also recorded: activate the transcriptional activity of Nurr1 in a dose-dependent manner; also recorded: increase transcriptional activity of Nurr1-LBD in a dose dependent manner
- MPP+-induced loss of TH-positive mDA neurons [4]: significantly rescued the MPP+-induced loss of TH-positive mDA neurons
- transcriptional activity of PPARγ-LBD [3]: failed to induce transcriptional activity of PPARγ-LBD
- TH density in the striatum [5]: retain
- number of TH+ neurons in the SN [5]: retain a significant number
- latency to fall on a rotating rod (rotarod) [5]: rescues impaired motor behaviors
- time to descent on the pole (pole test) [5]: rescues impaired motor behaviors
- maximal effective concentration [6]: 20 μM and 10 μg/ml
- suppression of pro-inflammatory genes TNFα, IL-1β, iNOS and IL-6 [6]: induced suppression of pro-inflammatory genes including TNFα, IL-1β, iNOS and IL-6 in a dose-dependent manner
